Laboratory results as given in article PMC3763632, “Radiosynthesis and Radiotracer Properties of a 7-(2-[^18F]Fluoroethoxy)-6-methoxypyrrolidinylquinazoline for Imaging of Phosphodiesterase 10A with PET” (Pharmaceuticals, 2012).
“Also recorded” adds a separate entry of the source.

Key:
[1] = tested on: PDE10A; assay: Ex vivo autoradiography of mouse brain; format: in vivo, CD-1 mice; conditions: 30 min p.i. of 100 MBq
Description: To determine the regional distribution of [^18F]IV in the brain in vivo, we also performed ex vivo autoradiography. In CD-1 mice brain, heterogeneous distribution of radioactivity was noticed at 30 min after [^18F]IV injection (Figure 5), but the localization of radioligand did neither correlate with the spatial distribution of PDE10A in the brain known from immunohistochemical and in vivo PET studies nor with the pattern of [^18F]IV binding in the brain in vitro (Figure 3A). […] The discrepancy in the pattern of [^18F]IV distribution between in vitro and ex vivo autoradiography most probably indicates off-target binding of the radiotracer in combination with to low target affinity. While the dissociation rate underlying low affinity towards PDE10A allows a detection in the closed system of an in vitro study, the dynamic processes in vivo make binding of [^18F]IV towards PDE10A non-detectable. […]
Ex vivo autoradiography on the distribution of [^18F]IV in mouse brain (n = 1) was performed on sagittal brain sections obtained at 30 min after i.v. injection of 100 MBq of [^18F]IV. […] After exposition to ^18F-sensitive storage phosphor screens for 60 min, image plates were analyzed using a bioimaging analyzer system (see above).

[2] = log D7.2-7.4 by shake-flask method; format: physicochemical; conditions: overall value from HPLC and shake-flask determinations; read-out: experimental log D7.0–7.4
Description: To clarify these findings, we determined the ligand distribution coefficients for [^18/19F]IV experimentally, under physiological pH conditions in solid-liquid phase systems via retention on RP-HPLC, and in liquid-liquid phase systems by conventional shake-flask method. […] All in one, an experimental log D7.0–7.4 value of ~2.7 promised a good potential for brain uptake of [^18F]IV in vivo, attended by low unspecific binding.
Log D7.2–7.4 values of [^18F]IV were determined using a conventional shake-flask method (multiple distribution in triplicates). Measurements of distribution coefficients were performed in 3 series at 21 °C between n-octanol and three aqueous buffer solutions, physiological phosphate-saline (0.1 M Na3PO4, 0.15 M NaCl, pH 7.2), phosphate buffer (KH2PO4/Na2HPO4•2H2O, 50 mM, pH 7.2) or TRIS-HCl buffer (50 mM, pH 7.4 at 21 °C). Solutions of [^18F]IV (2–5 MBq) in MeCN, MeOH (100 μL) or in 5% ethanol/0.9% NaCl (10 μL) were added to a 15 mL polypropylene tube (n = 3 per buffer system) containing a two-layer system of a selected aqueous solution (3 mL) and n-octanol (3 mL). […] Radioactivity of these samples was quantified using a calibrated γ-counter (Wallac WIZARD, Perkin Elmer, Waltham, MA, USA). […] Distribution coefficients and log D7.2–7.4 values of [^18F]IV were calculated with Microcal^TM Origin (6.0, Microcal Software, Inc., Northhampton, MA, USA).

COc1cc2c(N3CC[C@@H](Oc4cnc5ccccc5n4)C3)ncnc2cc1OCC[18F] [[^18F]IV, (R)-7-(2-[^18F]Fluoroethoxy)-6-methoxy-4-(3-(quinoxalin-2-yloxy)pyrrolidin-1-yl)quinazoline]
accumulation in PDE10A-expressing brain regions (caudate putamen, olfactory tubercle, cerebellum) [1]: no target specific accumulation; also recorded: free of significant accumulation
logD [2]: ~2.7
